Values quoted from earlier work in patent publication US20140031355A1, “HETEROCYCLIC COMPOUNDS AND THEIR USES” (Amgen Inc., priority 2010, published 2014).

How the values were obtained:
[1] = system: systemic lupus erythematosis model; details: in vivo
[2] = system: rheumatoid arthritis model; details: in vivo
p110δ = target: T1, p110δ (Homo sapiens, UniProt O00329)
T1 sequence (O00329 1-1044): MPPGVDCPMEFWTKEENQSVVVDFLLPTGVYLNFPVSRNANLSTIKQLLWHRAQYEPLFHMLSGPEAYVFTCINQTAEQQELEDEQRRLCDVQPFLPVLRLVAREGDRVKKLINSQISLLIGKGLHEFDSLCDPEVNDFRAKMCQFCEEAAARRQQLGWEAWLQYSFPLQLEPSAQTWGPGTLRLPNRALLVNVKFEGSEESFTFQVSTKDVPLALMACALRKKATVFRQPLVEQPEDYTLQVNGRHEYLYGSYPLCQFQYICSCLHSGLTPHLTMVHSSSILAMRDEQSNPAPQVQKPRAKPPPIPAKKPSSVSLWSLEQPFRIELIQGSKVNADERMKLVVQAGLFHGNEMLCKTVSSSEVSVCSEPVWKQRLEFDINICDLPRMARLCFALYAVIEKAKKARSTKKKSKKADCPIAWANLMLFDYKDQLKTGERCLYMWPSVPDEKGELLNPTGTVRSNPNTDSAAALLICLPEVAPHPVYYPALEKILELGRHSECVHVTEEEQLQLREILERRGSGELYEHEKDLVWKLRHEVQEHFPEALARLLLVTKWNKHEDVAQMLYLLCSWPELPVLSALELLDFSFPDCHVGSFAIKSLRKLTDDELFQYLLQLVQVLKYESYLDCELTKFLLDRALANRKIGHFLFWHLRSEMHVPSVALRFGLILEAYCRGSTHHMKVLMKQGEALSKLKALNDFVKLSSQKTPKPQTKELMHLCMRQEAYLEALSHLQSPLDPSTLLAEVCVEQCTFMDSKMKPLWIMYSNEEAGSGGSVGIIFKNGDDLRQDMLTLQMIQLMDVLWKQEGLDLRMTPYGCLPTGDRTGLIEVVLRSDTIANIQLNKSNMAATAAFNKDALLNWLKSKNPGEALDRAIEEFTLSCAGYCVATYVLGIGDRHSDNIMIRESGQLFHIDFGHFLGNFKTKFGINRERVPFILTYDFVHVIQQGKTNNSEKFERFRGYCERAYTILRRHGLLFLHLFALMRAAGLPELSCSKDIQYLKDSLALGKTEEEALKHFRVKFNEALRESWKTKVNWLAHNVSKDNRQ

[3] = system: ovalbumin-induced airway inflammation
[4] = system: passive cutaneous anaphylaxis (PCA); details: absence of functional delta (IC 87114 and p110δ D910A mice)

Compound | onset of disease in a model of systemic lupus erythematosis [1] | efficacy in a mouse model of rheumatoid arthritis [2] | inhibits p110δ (p110δ) | inflammation and disease in a murine model of asthma [3] | passive cutaneous anaphylaxis (PCA) [4] | activity against any protein kinases tested (protein kinases)
O=C1NC(=O)/C(=C\c2ccc3nccnc3c2)S1 [AS 605240] | delay onset of disease | efficacious |  |  |  | 
Cc1ccccc1-n1c(Cn2cnc3c(N)ncnc32)nc2cccc(C)c2c1=O [IC87114] |  |  | high nanomolar range (triple digit) | significantly ameliorate | significantly reduced | no activity
